In patent US4871745A, “2- or 3-aryl substituted imidazo(1,2-A)pyridines and their use as antisecretory agents” (Ortho Pharmaceutical Corporation, priority 1988, dated 1989):

These compounds were tested on calcium dependent smooth muscle contraction (trachealis muscle tissue) (assay: Inhibition of calcium dependent smooth muscle contraction (tracheal rings, KCl challenge)). Conditions: Canis lupus familiaris, 10 μM test compound for 10 min, dog tracheal rings, 30 min, 37° C.
Assay type: cell-based, dogs
Method: (§1) The calcium channel blocking activity of the above compounds was determined by measuring (A) the inhibition of calcium dependent smooth muscle contraction and (B) inhibition of nitrendipine binding as follows.
(A) Trachea from dogs sacrificed by excess KCl injection were stored overnight at 4° C. in oxygenated Krebs-Henseleit buffer. Tracheal rings, one cartilage segment wide (5-10 mm) were cut starting from the bronchial end. After cutting the cartilage, the trachealis muscle tissue was suspended in oxygenated Krebs-Henseleit buffer at 37° C. in a 25 ml tissue bath. After a 60 minute equilibration period, the tissues were challenged with 10 μM carbachol. After five minutes, the tissues were rinsed and allowed to rest 50 minutes. The tissues were then challened with 50 mM KCl and, after 30 minutes, the contracts were quantitated. The tissues were then rinsed and re-equilibrated for 50 minutes. Test compounds were then added at 10 μM for 10 minutes, and the tissues were rechallenged with 40 mM KCl.
The percent inhibition of smooth muscle contraction was calculated from response data before and after drug treatment. [formula]

SMILES | inhibition at 10 µM [%]
CCCCN(CCCC)CCCOc1ccc(-c2cn3ccc(C)cc3n2)cc1 [Example 4, 2-(4-Dibutylaminopropoxyphenyl)-7-methylimidazo[1,2-a]pyridine] | 46
CCCCN(CCCC)CCCOc1ccc(C(=O)c2cnc3ccc(Br)cn23)cc1 [Example 14, 3-(4-Dibutylaminopropoxybenzoyl)-6-bromoimidazo[1,2-a]pyridine] | 62
CCCCN(CCCC)CCCOc1ccc(C(=O)c2cn3c(C)cc(C)cc3n2)cc1 [Example 9, 2-(4-Dibutylaminopropoxybenzoyl)-5,7-dimethylimidazo[1,2-a]pyridine] | 39
CCCCN(CCCC)CCCOc1ccc(C(=O)c2cn3ccc(C)cc3n2)cc1 [Example 10, 2-(4-Dibutylaminopropoxybenzoyl)-7-methylimidazo[1,2-a]pyridine] | 42
CCCCN(CCCC)CCCOc1ccc(-c2cn3cccc(C)c3n2)cc1 [Example 2, 2-(4-Dibutylaminopropoxyphenyl)-8-methylimidazo[1,2-a]pyridine] | 61
CCCCN(CCCC)CCCOc1ccc(C(=O)c2cn3cccc(OCc4ccccc4)c3n2)cc1 [Example 11, 2-(4-Dibutylaminopropoxybenzoyl)-8-benzyloxyimidazo[1,2-]pyridine] | 18
CCCCN(CCCC)CCCOc1ccc(C(=O)c2cn3cccc(C)c3n2)cc1 [Example 8, 2-(4-Dibutylaminopropoxybenzoyl)-8-methylimidazo[1,2-a]pyridine] | 58
CCCCN(CCCC)CCCOc1ccc(-c2cn3cc(Br)ccc3n2)cc1 [Example 3, 2-(4-Dibutylaminopropoxyphenyl)-6-bromoimidazo[1,2-a]pyridine] | 32
CCCCN(CCCC)CCCOc1ccc(-c2cn3ccccc3n2)cc1 [Example 1, 2-(4-Dibutylaminopropoxyphenyl)imidazo[1,2-a]pyridine] | 54
CCCCN(CCCC)CCCOc1ccc(-c2cn3cccc(OCc4ccccc4)c3n2)cc1 [Example 6, 2-(4-Dibutylaminopropoxyphenyl)-8-benzloxyimidazo[1,2-a]pyridine] | 35
CCCCN(CCCC)CCCOc1ccc(C(=O)c2cnc3c(C)cccn23)cc1 [Example 13, 3-(4-Dibutylaminopropoxybenzoyl)-8-methylimidazo[1,2-a]pyridine] | 56
CCCCN(CCCC)CCCOc1ccc(-c2nc3c(C)cccn3c2C)cc1 [Example 7, 2-(4-Dibutylaminopropoxyphenyl)-3,8-dimethylimidazo[1,2-a]pyridine] | 27

The compounds below were run on quadriceps femoris muscle of one hind leg (assay: Local anesthetic activity: impaired ability of mice to grasp inverted screen after injection into quadriceps femoris muscle). Conditions: Mus musculus, im, 5 min; overnight-fasted mice; 0.05 ml solution or suspension (w/v) injected into quadriceps femoris muscle of one hind leg; observed 5 min later; read-out: Concentration (in %) of Compound Causing Local Anesthetic Activity.
Assay type: in vivo, male albino overnight-fasted mice
Method: The local anesthetic activity of the above compounds was tested as follows.
The test compounds were dissolved or suspended in a 0.5% aqueous methylcellulose solution containing 0.4% (v/v) of Tween 80, The polyoxyethylene derivative of a sorbitan ester. Doses of up to 100 mg/kg were administered orally by gagvage tube to groups of three male albino overnight-fasted mice (18 to 24 g) which were observed intermittently for one hour. The mice were gently restrained and 0.05 ml of a 1% (w/v) solution or suspension of the test compound was injected into the quadriceps femoris muscle of one hind leg. Five minutes later, the mice were individually placed on a wire mesh screen. The wire mesh screen was then inverted. […] The response to the test compounds was compared to a similarly treated vehicle control group of mice.

SMILES | minimal effective concentration [µg/mL]
CCCCN(CCCC)CCCOc1ccc(-c2cn3ccc(C)cc3n2)cc1 [Example 4, 2-(4-Dibutylaminopropoxyphenyl)-7-methylimidazo[1,2-a]pyridine] | 1000
CCCCN(CCCC)CCCOc1ccc(C(=O)c2cnc3ccc(Br)cn23)cc1 [Example 14, 3-(4-Dibutylaminopropoxybenzoyl)-6-bromoimidazo[1,2-a]pyridine] | 1000
CCCCN(CCCC)CCCOc1ccc(C(=O)c2cn3c(C)cc(C)cc3n2)cc1 [Example 9, 2-(4-Dibutylaminopropoxybenzoyl)-5,7-dimethylimidazo[1,2-a]pyridine] | 10000
CCCCN(CCCC)CCCOc1ccc(C(=O)c2cn3ccc(C)cc3n2)cc1 [Example 10, 2-(4-Dibutylaminopropoxybenzoyl)-7-methylimidazo[1,2-a]pyridine] | 10000
CCCCN(CCCC)CCCOc1ccc(C(=O)c2cn3cc(Br)ccc3n2)cc1 [Example 12] | 10000
CCCCN(CCCC)CCCOc1ccc(-c2cn3cccc(C)c3n2)cc1 [Example 2, 2-(4-Dibutylaminopropoxyphenyl)-8-methylimidazo[1,2-a]pyridine] | 10
CCCCN(CCCC)CCCOc1ccc(C(=O)c2cn3cccc(OCc4ccccc4)c3n2)cc1 [Example 11, 2-(4-Dibutylaminopropoxybenzoyl)-8-benzyloxyimidazo[1,2-]pyridine] | 1000
CCCCN(CCCC)CCCOc1ccc(-c2cn3cccc(O)c3n2)cc1 [Example 5, 2-(4-Dibutylaminopropoxyphenyl)-8-hydroxyimidazo[1,2-a]pyridine] | 10000
CCCCN(CCCC)CCCOc1ccc(C(=O)c2cn3cccc(C)c3n2)cc1 [Example 8, 2-(4-Dibutylaminopropoxybenzoyl)-8-methylimidazo[1,2-a]pyridine] | 10000
CCCCN(CCCC)CCCOc1ccc(-c2cn3cc(Br)ccc3n2)cc1 [Example 3, 2-(4-Dibutylaminopropoxyphenyl)-6-bromoimidazo[1,2-a]pyridine] | 10000
CCCCN(CCCC)CCCOc1ccc(-c2cn3ccccc3n2)cc1 [Example 1, 2-(4-Dibutylaminopropoxyphenyl)imidazo[1,2-a]pyridine] | 1000
CCCCN(CCCC)CCCOc1ccc(-c2cn3cccc(OCc4ccccc4)c3n2)cc1 [Example 6, 2-(4-Dibutylaminopropoxyphenyl)-8-benzloxyimidazo[1,2-a]pyridine] | 1000
CCCCN(CCCC)CCCOc1ccc(C(=O)c2cnc3c(C)cccn23)cc1 [Example 13, 3-(4-Dibutylaminopropoxybenzoyl)-8-methylimidazo[1,2-a]pyridine] | 1000
CCCCN(CCCC)CCCOc1ccc(-c2nc3c(C)cccn3c2C)cc1 [Example 7, 2-(4-Dibutylaminopropoxyphenyl)-3,8-dimethylimidazo[1,2-a]pyridine] | 1000

The compounds below were run on gastric acid secretion (assay: Antisecretory activity: gastric acid secretion in pylorus-ligated rats). Conditions: Rattus norvegicus, 20 mg/kg, intraduodenal or s.c., 4 h after ligation, acid output compared to control, read-out: % Acid Secreted.
Assay type: in vivo, male Charles River Sprague Dawley derived rats
Method: The antisecretory activity of the above compounds was determined by measuring gastric acid secretion using pylorus ligation in a modification of the procedure of Shay et al., Gastroenterology 26, 906 (1954). Basically, male Charles River Sprague Dawley derived rats weighing 150-300 grams were deprived of food but not water for 18-24 hours prior to use. Water was withheld during the experiment, however. The rats were weighed, anesthesized with ether and the pylorus ligated according to the method of Shay et al., supra. Treatment or vehicle control was then administered intraduodenally (i.d.) or subcutaneously (s.c.). Rats were housed two/cage and sacrificed with CO2 four hours after ligation. The stomachs were removed, rinsed, and contents emptied into a graduated centrifuge tube. The tubes were centrifuged, the volume of gastric juice recorded, and any samples obviously contamined by feces, food or blood were eliminated. A 1 ml aliquot of gastric juice was titrated with 0.1N NaOH to a pH of 7.0-7.4. The volume of gastric juice secreted, the acid concentration, and the product of the volume times the concentration, i.e., the total amount of acid secreted, were measured.

SMILES | change in vivo at 20 mg/kg [%]
CCCCN(CCCC)CCCOc1ccc(C(=O)c2cnc3ccc(Br)cn23)cc1 [Example 14, 3-(4-Dibutylaminopropoxybenzoyl)-6-bromoimidazo[1,2-a]pyridine] | -18
CCCCN(CCCC)CCCOc1ccc(C(=O)c2cn3c(C)cc(C)cc3n2)cc1 [Example 9, 2-(4-Dibutylaminopropoxybenzoyl)-5,7-dimethylimidazo[1,2-a]pyridine] | -27
CCCCN(CCCC)CCCOc1ccc(-c2cn3cccc(C)c3n2)cc1 [Example 2, 2-(4-Dibutylaminopropoxyphenyl)-8-methylimidazo[1,2-a]pyridine] | -91
CCCCN(CCCC)CCCOc1ccc(C(=O)c2cn3cccc(C)c3n2)cc1 [Example 8, 2-(4-Dibutylaminopropoxybenzoyl)-8-methylimidazo[1,2-a]pyridine] | -27
CCCCN(CCCC)CCCOc1ccc(-c2cn3cc(Br)ccc3n2)cc1 [Example 3, 2-(4-Dibutylaminopropoxyphenyl)-6-bromoimidazo[1,2-a]pyridine] | -18
CCCCN(CCCC)CCCOc1ccc(-c2cn3ccccc3n2)cc1 [Example 1, 2-(4-Dibutylaminopropoxyphenyl)imidazo[1,2-a]pyridine] | -41
CCCCN(CCCC)CCCOc1ccc(-c2cn3cccc(OCc4ccccc4)c3n2)cc1 [Example 6, 2-(4-Dibutylaminopropoxyphenyl)-8-benzloxyimidazo[1,2-a]pyridine] | -16
CCCCN(CCCC)CCCOc1ccc(-c2nc3c(C)cccn3c2C)cc1 [Example 7, 2-(4-Dibutylaminopropoxyphenyl)-3,8-dimethylimidazo[1,2-a]pyridine] | -54

Same assay, conditions: Rattus norvegicus, 40 mg/kg, intraduodenal or s.c., 4 h after ligation, acid output compared to control, read-out: % Acid Secreted

SMILES | change in vivo at 40 mg/kg [%]
CCCCN(CCCC)CCCOc1ccc(C(=O)c2cnc3c(C)cccn23)cc1 [Example 13, 3-(4-Dibutylaminopropoxybenzoyl)-8-methylimidazo[1,2-a]pyridine] | -49

The compounds below were run against T1, calcium channel (nitrendipine binding) (Oryctolagus cuniculus, UniProt P15381) (assay: Inhibition of 3H-nitrendipine binding (heart membranes), calcium channel blocking activity). Conditions: 3H-nitrendipine 0.05-0.50 nM; rabbit heart membranes; 90 min at 4° C.; pH 7.4; read-out: B: IC50 (inhibition of nitrendipine binding).
T1 construct: the heart was immediately removed, cleaned and chopped into small pieces; from tissue; host or cells: rabbit heart, crude membrane pellet (42,000×g)
T1 sequence (P15381 whole entry, other chains not shown): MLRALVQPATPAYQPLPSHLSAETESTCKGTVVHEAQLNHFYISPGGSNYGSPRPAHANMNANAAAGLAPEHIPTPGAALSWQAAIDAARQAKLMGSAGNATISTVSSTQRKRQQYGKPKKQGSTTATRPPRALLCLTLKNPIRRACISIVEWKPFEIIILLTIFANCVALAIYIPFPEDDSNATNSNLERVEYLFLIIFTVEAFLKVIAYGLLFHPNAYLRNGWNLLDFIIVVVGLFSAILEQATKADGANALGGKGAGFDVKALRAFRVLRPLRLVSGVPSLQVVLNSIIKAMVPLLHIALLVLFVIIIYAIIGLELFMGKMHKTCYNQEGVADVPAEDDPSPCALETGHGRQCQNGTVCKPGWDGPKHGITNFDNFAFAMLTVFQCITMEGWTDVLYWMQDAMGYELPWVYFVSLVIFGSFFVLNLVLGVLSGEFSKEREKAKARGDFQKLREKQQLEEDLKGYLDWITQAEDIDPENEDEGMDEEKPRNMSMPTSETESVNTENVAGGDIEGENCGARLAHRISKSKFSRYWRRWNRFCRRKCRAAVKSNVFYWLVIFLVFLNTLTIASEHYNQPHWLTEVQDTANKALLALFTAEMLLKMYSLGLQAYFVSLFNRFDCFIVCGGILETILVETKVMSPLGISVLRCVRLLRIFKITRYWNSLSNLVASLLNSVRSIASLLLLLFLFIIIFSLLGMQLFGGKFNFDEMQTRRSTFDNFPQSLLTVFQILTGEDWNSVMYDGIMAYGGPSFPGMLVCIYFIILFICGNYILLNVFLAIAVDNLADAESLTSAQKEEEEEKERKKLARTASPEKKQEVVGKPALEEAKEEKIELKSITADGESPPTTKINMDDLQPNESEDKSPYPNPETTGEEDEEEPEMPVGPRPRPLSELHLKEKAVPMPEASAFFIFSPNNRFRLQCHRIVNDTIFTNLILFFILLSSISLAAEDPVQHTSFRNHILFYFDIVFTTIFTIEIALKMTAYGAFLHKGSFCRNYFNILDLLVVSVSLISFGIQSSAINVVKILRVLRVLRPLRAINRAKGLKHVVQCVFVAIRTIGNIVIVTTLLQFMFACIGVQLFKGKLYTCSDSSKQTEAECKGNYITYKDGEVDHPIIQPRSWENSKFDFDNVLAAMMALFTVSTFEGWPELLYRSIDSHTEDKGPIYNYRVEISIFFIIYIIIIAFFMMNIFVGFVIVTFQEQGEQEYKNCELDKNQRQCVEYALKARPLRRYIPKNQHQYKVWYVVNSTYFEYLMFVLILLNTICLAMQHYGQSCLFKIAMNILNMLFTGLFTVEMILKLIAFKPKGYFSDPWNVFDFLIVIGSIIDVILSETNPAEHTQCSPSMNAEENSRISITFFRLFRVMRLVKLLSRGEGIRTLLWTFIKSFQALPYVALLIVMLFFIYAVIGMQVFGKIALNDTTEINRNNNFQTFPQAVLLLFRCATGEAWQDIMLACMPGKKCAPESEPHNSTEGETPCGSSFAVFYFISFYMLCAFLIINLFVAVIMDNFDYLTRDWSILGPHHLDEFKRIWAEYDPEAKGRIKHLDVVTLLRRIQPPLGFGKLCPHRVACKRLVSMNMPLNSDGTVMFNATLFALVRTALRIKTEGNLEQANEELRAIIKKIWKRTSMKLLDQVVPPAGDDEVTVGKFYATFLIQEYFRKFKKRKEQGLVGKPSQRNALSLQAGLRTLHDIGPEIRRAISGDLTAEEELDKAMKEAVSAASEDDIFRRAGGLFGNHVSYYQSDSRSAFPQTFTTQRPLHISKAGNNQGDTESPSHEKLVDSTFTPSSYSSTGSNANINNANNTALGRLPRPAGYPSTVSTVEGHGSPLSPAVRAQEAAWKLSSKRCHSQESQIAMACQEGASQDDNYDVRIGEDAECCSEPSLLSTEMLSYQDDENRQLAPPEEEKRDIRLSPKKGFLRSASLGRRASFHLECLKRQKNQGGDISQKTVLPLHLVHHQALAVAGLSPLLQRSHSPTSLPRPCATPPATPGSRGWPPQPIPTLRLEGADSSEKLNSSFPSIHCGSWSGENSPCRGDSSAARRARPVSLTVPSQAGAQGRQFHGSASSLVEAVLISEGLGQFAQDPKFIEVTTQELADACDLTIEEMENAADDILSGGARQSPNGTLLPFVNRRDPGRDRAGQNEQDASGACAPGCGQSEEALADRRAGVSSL
T1 sequence (P13806 27-960 partner limits assumed, other chains not shown): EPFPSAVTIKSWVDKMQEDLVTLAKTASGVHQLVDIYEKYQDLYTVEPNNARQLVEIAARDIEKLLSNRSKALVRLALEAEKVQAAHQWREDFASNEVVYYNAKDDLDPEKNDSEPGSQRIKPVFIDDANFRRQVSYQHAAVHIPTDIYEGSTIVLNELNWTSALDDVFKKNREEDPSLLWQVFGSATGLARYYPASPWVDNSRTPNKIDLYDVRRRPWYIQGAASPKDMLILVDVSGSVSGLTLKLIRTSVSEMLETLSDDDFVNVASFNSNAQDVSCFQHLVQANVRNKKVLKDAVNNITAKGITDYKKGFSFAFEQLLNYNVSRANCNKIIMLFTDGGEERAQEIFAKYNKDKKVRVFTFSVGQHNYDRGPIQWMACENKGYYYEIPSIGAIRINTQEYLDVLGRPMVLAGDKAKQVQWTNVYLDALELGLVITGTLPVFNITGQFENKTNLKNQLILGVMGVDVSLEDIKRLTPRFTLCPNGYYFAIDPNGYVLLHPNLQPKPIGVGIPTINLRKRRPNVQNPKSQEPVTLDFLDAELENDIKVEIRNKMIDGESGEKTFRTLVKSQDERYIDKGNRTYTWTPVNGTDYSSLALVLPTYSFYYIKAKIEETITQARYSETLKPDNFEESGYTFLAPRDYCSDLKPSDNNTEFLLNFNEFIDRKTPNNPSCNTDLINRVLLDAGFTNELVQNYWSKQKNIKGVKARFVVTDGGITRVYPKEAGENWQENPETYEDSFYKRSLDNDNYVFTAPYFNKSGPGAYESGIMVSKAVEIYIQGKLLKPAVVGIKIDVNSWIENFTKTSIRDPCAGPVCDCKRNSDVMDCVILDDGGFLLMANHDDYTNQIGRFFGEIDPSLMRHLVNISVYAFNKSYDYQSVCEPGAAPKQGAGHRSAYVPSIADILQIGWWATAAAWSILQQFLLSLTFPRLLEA
T1 sequence (P13806 961-1106 partner limits assumed, other chains not shown): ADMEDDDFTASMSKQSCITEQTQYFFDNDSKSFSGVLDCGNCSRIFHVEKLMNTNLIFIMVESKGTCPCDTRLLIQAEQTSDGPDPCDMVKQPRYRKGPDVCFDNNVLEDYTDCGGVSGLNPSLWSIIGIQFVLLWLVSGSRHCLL
Parameters: species or system female New Zealand white rabbits
Method: as §1
(B) The inhibition of nitrendipine binding was determined by following the procedures of Bolger et al., Biochem. Biophys. Res. Comm. 104, 1604 (1982) and Ehlert et al., Life Sciences 30, 2191 (1982). Basically, female New Zealand white rabbits (1-2 kg) were sacrificed by cervical dislocation, and the heart was immediately removed, cleaned and chopped into small pieces. The tissue was homogenized in 5× volume of 0.05M Hepes buffer, pH 7.4. The homogenate was centrifuged at 400×g for 10 minutes; the supernatant was recentrifuged at 42,000×g for 90 minutes. The resulting membrane pellet was resuspended (0.7 ml/g weight) in 0.05M Hepes, pH 7.4, and stored at -70° C. until used. Each tube of the binding assay contained ^3 H-nitrendipine (0.05-0.50 nM), buffer, membranes (0.10 ml), and test compound in a total volume of 1.0 ml. After 90 minutes at 4° C., the bound nitrendipine was separated from the unbound by filtration to Whatman GF/C fibers. After rinsing, the filters were dried and counted in a liquid scintillation counter.
Non-specific binding of ^3 H-nitrendipine (that amount bound in the presence of excess unlabelled nitrendipine) was subtracted from the total bound to obtain specifically bound radiolabeled nitrendipine. The amount of specifically bound nitrendipine in the presence of a test compound was compared to that amount bound in the absence of a compound. A percent displacement (or inhibition) was then obtained.

IC50 [nM] | SMILES
6000 | CCCCN(CCCC)CCCOc1ccc(-c2cn3ccc(C)cc3n2)cc1 [Example 4, 2-(4-Dibutylaminopropoxyphenyl)-7-methylimidazo[1,2-a]pyridine]
200 | CCCCN(CCCC)CCCOc1ccc(C(=O)c2cnc3ccc(Br)cn23)cc1 [Example 14, 3-(4-Dibutylaminopropoxybenzoyl)-6-bromoimidazo[1,2-a]pyridine]
2200 | CCCCN(CCCC)CCCOc1ccc(C(=O)c2cn3c(C)cc(C)cc3n2)cc1 [Example 9, 2-(4-Dibutylaminopropoxybenzoyl)-5,7-dimethylimidazo[1,2-a]pyridine]
1600 | CCCCN(CCCC)CCCOc1ccc(C(=O)c2cn3ccc(C)cc3n2)cc1 [Example 10, 2-(4-Dibutylaminopropoxybenzoyl)-7-methylimidazo[1,2-a]pyridine]
3000 | CCCCN(CCCC)CCCOc1ccc(C(=O)c2cn3cc(Br)ccc3n2)cc1 [Example 12]
600 | CCCCN(CCCC)CCCOc1ccc(-c2cn3cccc(C)c3n2)cc1 [Example 2, 2-(4-Dibutylaminopropoxyphenyl)-8-methylimidazo[1,2-a]pyridine]
2300 | CCCCN(CCCC)CCCOc1ccc(C(=O)c2cn3cccc(OCc4ccccc4)c3n2)cc1 [Example 11, 2-(4-Dibutylaminopropoxybenzoyl)-8-benzyloxyimidazo[1,2-]pyridine]
600 | CCCCN(CCCC)CCCOc1ccc(C(=O)c2cn3cccc(C)c3n2)cc1 [Example 8, 2-(4-Dibutylaminopropoxybenzoyl)-8-methylimidazo[1,2-a]pyridine]
2500 | CCCCN(CCCC)CCCOc1ccc(-c2cn3cc(Br)ccc3n2)cc1 [Example 3, 2-(4-Dibutylaminopropoxyphenyl)-6-bromoimidazo[1,2-a]pyridine]
2700 | CCCCN(CCCC)CCCOc1ccc(-c2cn3ccccc3n2)cc1 [Example 1, 2-(4-Dibutylaminopropoxyphenyl)imidazo[1,2-a]pyridine]
> 8000 | CCCCN(CCCC)CCCOc1ccc(-c2cn3cccc(OCc4ccccc4)c3n2)cc1 [Example 6, 2-(4-Dibutylaminopropoxyphenyl)-8-benzloxyimidazo[1,2-a]pyridine]
530 | CCCCN(CCCC)CCCOc1ccc(C(=O)c2cnc3c(C)cccn23)cc1 [Example 13, 3-(4-Dibutylaminopropoxybenzoyl)-8-methylimidazo[1,2-a]pyridine]
1900 | CCCCN(CCCC)CCCOc1ccc(-c2nc3c(C)cccn3c2C)cc1 [Example 7, 2-(4-Dibutylaminopropoxyphenyl)-3,8-dimethylimidazo[1,2-a]pyridine]
